Measurements from patent US10479819B2 (priority 2014, dated 2019).
Starred links: 1 amine or outer side, 2 acyl side, 3 side chain; linkers in the order of their positions; H or OH if unused. Non-standard residues stand in square brackets, D forms with d. Residues, ends and D or L forms follow the SMILES beside them. Groups on a side chain read outwards from the residue. *: point of attachment. C18 diacid = O=C(O)CCCCCCCCCCCCCCCCC(=O)*; γGlu = O=C(O)[C@H](CCC(=O)[*:2])N[*:1]; PEG2 = NCCOCCOCCC(=O)O; Aib = CC(C)(N)C(=O)O

Target: T1, human GLP-1R (Homo sapiens, UniProt P43220)
T1 construct: expressed in transfected cells
Test: In vitro activity on GLP-1R, CRE-luciferase HEK-293 cells
Assay type: cell-based
Conditions: ratio of EC50 GLP-1R to EC50 GCGR
Experimental: 5000 of HEK-293 cells, which are used in CRE-luciferase system and express human GCGR or GLP-1R stably, were inoculated into 384 well plates according to […] DMEM/10% FBS media/well. […] After incubation, […] of luciferase reagent was added directly to each plate and mixed gently for 2 minutes. The plates were placed into an Elmer Perkin plate reader for reading. Concentration curve of the compound was made by drawing software Prism 5, and the EC50 value was calculated.

T1 sequence (P43220 24-463): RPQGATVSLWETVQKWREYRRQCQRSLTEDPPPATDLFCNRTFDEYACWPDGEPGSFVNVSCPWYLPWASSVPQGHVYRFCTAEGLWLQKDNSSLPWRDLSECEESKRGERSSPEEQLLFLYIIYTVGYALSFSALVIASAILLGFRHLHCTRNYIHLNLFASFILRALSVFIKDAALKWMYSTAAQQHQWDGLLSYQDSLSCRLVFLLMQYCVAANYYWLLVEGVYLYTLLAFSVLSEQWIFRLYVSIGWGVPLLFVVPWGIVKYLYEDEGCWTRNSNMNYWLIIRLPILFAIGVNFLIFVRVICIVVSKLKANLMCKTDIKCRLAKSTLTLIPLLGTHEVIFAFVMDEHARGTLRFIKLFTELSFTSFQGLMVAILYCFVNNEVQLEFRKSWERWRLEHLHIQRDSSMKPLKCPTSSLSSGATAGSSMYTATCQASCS

Row | Compound | GLP-1R/GCGR
1 | CC(C)C[C@H](NC(=O)[C@H](CC(C)C)NC(=O)[C@H](Cc1c[nH]c2ccccc12)NC(=O)[C@H](CCC(=O)O)NC(=O)[C@@H](NC(=O)[C@H](Cc1ccccc1)NC(=O)[C@H](CC(=O)O)NC(=O)[C@H](Cc1c[nH]cn1)NC(=O)[C@H](C)NC(=O)[C@H](C)NC(=O)[C@H](CCCCNC(=O)CCOCCOCCNC(=O)CCOCCOCCNC(=O)CC[C@H](NC(=O)CCCCCCCCCCCCCCCCC(=O)O)C(=O)O)NC(=O)[C@H](CO)NC(=O)[C@H](CC(=O)O)NC(=O)[C@H](CC(C)C)NC(=O)[C@H](Cc1ccc(O)cc1)NC(=O)[C@H](CCCCN)NC(=O)[C@H](CO)NC(=O)[C@H](Cc1ccc(O)cc1)NC(=O)[C@H](CC(=O)O)NC(=O)[C@H](CO)NC(=O)[C@@H](NC(=O)[C@H](Cc1ccccc1)NC(=O)[C@@H](NC(=O)CNC(=O)[C@H](CCC(N)=O)NC(=O)[C@@H](CO)NC(=O)[C@@H](N)Cc1c[nH]cn1)[C@@H](C)O)[C@@H](C)O)C(C)C)C(=O)N[C@@H](CCCNC(=N)N)C(=O)N[C@@H](C)C(N)=O [Compound 1] | 0.4
2 | CC[C@H](C)[C@H](NC(=O)[C@H](Cc1ccccc1)NC(=O)[C@H](CCC(=O)O)NC(=O)[C@H](CCCCNC(=O)CCOCCOCCNC(=O)CCOCCOCCNC(=O)CC[C@H](NC(=O)CCCCCCCCCCCCCCCCC(=O)O)C(=O)O)NC(=O)[C@H](C)NC(=O)[C@H](C)NC(=O)[C@H](CCCCN)NC(=O)[C@H](CCC(=O)O)NC(=O)[C@H](CC(=O)O)NC(=O)[C@H](CC(C)C)NC(=O)[C@H](Cc1ccc(O)cc1)NC(=O)[C@H](CCCCN)NC(=O)[C@H](CO)NC(=O)[C@H](Cc1ccc(O)cc1)NC(=O)[C@H](CC(=O)O)NC(=O)[C@H](CO)NC(=O)[C@@H](NC(=O)[C@H](Cc1ccccc1)NC(=O)[C@@H](NC(=O)CNC(=O)[C@H](CCC(N)=O)NC(=O)[C@@H](CO)NC(=O)[C@@H](N)Cc1c[nH]cn1)[C@@H](C)O)[C@@H](C)O)C(=O)N[C@@H](CCC(=O)O)C(=O)N[C@@H](Cc1c[nH]c2ccccc12)C(=O)N[C@@H](CC(C)C)C(=O)N[C@@H](CC(C)C)C(=O)N[C@@H](CCCNC(=N)N)C(=O)N[C@@H](C)C(N)=O [Compound 2] (H-H[dS]QGTFTSDYSKYLDEKAAK([PEG2-PEG2-γGlu-C18 diacid])EFIEWLLRA-NH2) | 0.1
3 | CC(C)C[C@H](NC(=O)[C@H](CC(C)C)NC(=O)[C@H](Cc1c[nH]c2ccccc12)NC(=O)[C@H](CCC(=O)O)NC(=O)[C@@H](NC(=O)[C@H](Cc1ccccc1)NC(=O)[C@H](CC(=O)O)NC(=O)[C@H](Cc1c[nH]cn1)NC(=O)[C@H](C)NC(=O)[C@H](C)NC(=O)[C@H](CCCCNC(=O)CCOCCOCCNC(=O)CCOCCOCCNC(=O)CC[C@H](NC(=O)CCCCCCCCCCCCCCCCC(=O)O)C(=O)O)NC(=O)[C@H](CO)NC(=O)[C@H](CC(=O)O)NC(=O)[C@H](CC(C)C)NC(=O)[C@H](Cc1ccc(O)cc1)NC(=O)[C@H](CCCCN)NC(=O)[C@H](CO)NC(=O)[C@H](Cc1ccc(O)cc1)NC(=O)[C@H](CC(=O)O)NC(=O)[C@H](CO)NC(=O)[C@@H](NC(=O)[C@H](Cc1ccccc1)NC(=O)[C@@H](NC(=O)CNC(=O)[C@H](CCC(N)=O)NC(=O)[C@@H](CO)NC(=O)[C@@H](N)Cc1c[nH]cn1)[C@@H](C)O)[C@@H](C)O)C(C)C)C(=O)N[C@@H](CC(N)=O)C(=O)NCC(=O)NCC(=O)N1CCC[C@H]1C(=O)N[C@@H](CO)C(=O)N[C@@H](CO)C(=O)NCC(=O)N[C@@H](C)C(=O)N1CCC[C@H]1C(=O)N1CCC[C@H]1C(=O)N1CCC[C@H]1C(=O)N[C@@H](CO)C(N)=O [Compound 3] | 0.6
4 | CCCCCCCCCCCCCCCC(=O)N[C@@H](CCC(=O)NCCOCCOCCC(=O)NCCOCCOCCC(=O)NCCCC[C@H](NC(=O)[C@H](CC(=O)O)NC(=O)[C@H](CC(C)C)NC(=O)[C@H](Cc1ccc(O)cc1)NC(=O)[C@H](CCCCN)NC(=O)[C@H](CO)NC(=O)[C@H](Cc1ccc(O)cc1)NC(=O)[C@H](CC(=O)O)NC(=O)[C@H](CO)NC(=O)[C@@H](NC(=O)[C@H](Cc1ccccc1)NC(=O)[C@@H](NC(=O)CNC(=O)[C@H](CCC(N)=O)NC(=O)[C@@H](CO)NC(=O)[C@@H](N)Cc1c[nH]cn1)[C@@H](C)O)[C@@H](C)O)C(=O)N[C@@H](CCCNC(=N)N)C(=O)N[C@@H](CCCNC(=N)N)C(=O)N[C@@H](C)C(=O)N[C@@H](CCC(N)=O)C(=O)N[C@@H](CC(=O)O)C(=O)N[C@@H](Cc1ccccc1)C(=O)N[C@H](C(=O)N[C@@H](CCC(N)=O)C(=O)N[C@@H](Cc1c[nH]c2ccccc12)C(=O)N[C@@H](CC(C)C)C(=O)N[C@@H](CCSC)C(=O)N[C@@H](CC(N)=O)C(=O)N[C@H](C(=O)NCC(=O)NCC(=O)N1CCC[C@H]1C(=O)N[C@@H](CO)C(=O)N[C@@H](CO)C(=O)NCC(=O)N[C@@H](C)C(=O)N1CCC[C@H]1C(=O)N1CCC[C@H]1C(=O)N1CCC[C@H]1C(=O)N[C@@H](CO)C(N)=O)[C@@H](C)O)C(C)C)C(=O)O [Compound 10] | 3.3
5 | CSCC[C@H](NC(=O)[C@H](CC(C)C)NC(=O)[C@H](Cc1c[nH]c2ccccc12)NC(=O)[C@H](CCC(N)=O)NC(=O)[C@@H](NC(=O)[C@H](Cc1ccccc1)NC(=O)[C@H](CC(=O)O)NC(=O)[C@H](CCC(N)=O)NC(=O)[C@H](C)NC(=O)[C@H](CCCNC(=N)N)NC(=O)[C@H](CCCCNC(=O)CCOCCOCCNC(=O)CCOCCOCCNC(=O)CCCCCCCCCCCCCCCCC(=O)O)NC(=O)C(C)(C)NC(=O)[C@H](CC(=O)O)NC(=O)[C@H](CC(C)C)NC(=O)[C@H](Cc1ccc(O)cc1)NC(=O)[C@H](CCCCN)NC(=O)[C@H](CO)NC(=O)[C@H](Cc1ccc(O)cc1)NC(=O)[C@H](CC(=O)O)NC(=O)[C@H](CO)NC(=O)[C@@H](NC(=O)[C@H](Cc1ccccc1)NC(=O)[C@@H](NC(=O)CNC(=O)[C@H](CCC(N)=O)NC(=O)[C@@H](CO)NC(=O)[C@@H](N)Cc1c[nH]cn1)[C@@H](C)O)[C@@H](C)O)C(C)C)C(=O)N[C@@H](CC(N)=O)C(=O)N[C@H](C(=O)NCC(=O)NCC(=O)N1CCC[C@H]1C(=O)N[C@@H](CO)C(=O)N[C@@H](CO)C(=O)NCC(=O)N[C@@H](C)C(=O)N1CCC[C@H]1C(=O)N1CCC[C@H]1C(=O)N1CCC[C@H]1C(=O)N[C@@H](CO)C(N)=O)[C@@H](C)O [Compound 12] (H-H[dS]QGTFTSDYSKYLD[Aib]K([PEG2-PEG2-C18 diacid])RAQDFVQWLMNTGGPSSGAPPPS-NH2; N-terminus assumed) | 2.1
6 | CCCCCCCCCCCCCCCC(=O)N[C@@H](CCC(=O)NCCOCCOCCC(=O)NCCOCCOCCC(=O)NCCCC[C@H](NC(=O)C(C)(C)NC(=O)[C@H](CC(=O)O)NC(=O)[C@H](CC(C)C)NC(=O)[C@H](Cc1ccc(O)cc1)NC(=O)[C@H](CCCCN)NC(=O)[C@H](CO)NC(=O)[C@H](Cc1ccc(O)cc1)NC(=O)[C@H](CC(=O)O)NC(=O)[C@H](CO)NC(=O)[C@@H](NC(=O)[C@H](Cc1ccccc1)NC(=O)[C@@H](NC(=O)CNC(=O)[C@H](CCC(N)=O)NC(=O)[C@@H](CO)NC(=O)[C@@H](N)Cc1c[nH]cn1)[C@@H](C)O)[C@@H](C)O)C(=O)N[C@@H](CCCNC(=N)N)C(=O)N[C@@H](C)C(=O)N[C@@H](CCC(N)=O)C(=O)N[C@@H](CC(=O)O)C(=O)N[C@@H](Cc1ccccc1)C(=O)N[C@H](C(=O)N[C@@H](CCC(N)=O)C(=O)N[C@@H](Cc1c[nH]c2ccccc12)C(=O)N[C@@H](CC(C)C)C(=O)N[C@@H](CCSC)C(=O)N[C@@H](CC(N)=O)C(=O)N[C@H](C(=O)NCC(=O)NCC(=O)N1CCC[C@H]1C(=O)N[C@@H](CO)C(=O)N[C@@H](CO)C(=O)NCC(=O)N[C@@H](C)C(=O)N1CCC[C@H]1C(=O)N1CCC[C@H]1C(=O)N1CCC[C@H]1C(=O)N[C@@H](CO)C(N)=O)[C@@H](C)O)C(C)C)C(=O)O [Compound 13] | 2.8
7 | CSCC[C@H](NC(=O)[C@H](CC(C)C)NC(=O)[C@H](Cc1c[nH]c2ccccc12)NC(=O)[C@H](CCC(N)=O)NC(=O)[C@@H](NC(=O)[C@H](Cc1ccccc1)NC(=O)[C@H](CC(=O)O)NC(=O)[C@H](CCC(N)=O)NC(=O)[C@H](C)NC(=O)[C@H](CCCNC(=N)N)NC(=O)[C@H](CCCCNC(=O)CCOCCOCCNC(=O)CCOCCOCCNC(=O)CC[C@H](NC(=O)CCCCCCCCCCCCCCCCC(=O)O)C(=O)O)NC(=O)C(C)(C)NC(=O)[C@H](CC(=O)O)NC(=O)[C@H](CC(C)C)NC(=O)[C@H](Cc1ccc(O)cc1)NC(=O)[C@H](CCCCN)NC(=O)[C@H](CO)NC(=O)[C@H](Cc1ccc(O)cc1)NC(=O)[C@H](CC(=O)O)NC(=O)[C@H](CO)NC(=O)[C@@H](NC(=O)[C@H](Cc1ccccc1)NC(=O)[C@@H](NC(=O)CNC(=O)[C@H](CCC(N)=O)NC(=O)[C@@H](CO)NC(=O)[C@@H](N)Cc1c[nH]cn1)[C@@H](C)O)[C@@H](C)O)C(C)C)C(=O)N[C@@H](CC(N)=O)C(=O)N[C@H](C(=O)NCC(=O)NCC(=O)N1CCC[C@H]1C(=O)N[C@@H](CO)C(=O)N[C@@H](CO)C(=O)NCC(=O)N[C@@H](C)C(=O)N1CCC[C@H]1C(=O)N1CCC[C@H]1C(=O)N1CCC[C@H]1C(=O)N[C@@H](CO)C(N)=O)[C@@H](C)O [Compound 14] | 2.1
8 | CCCCCCCCCCCCCCCC(=O)NCCOCCOCCC(=O)NCCOCCOCCC(=O)NCCCC[C@H](NC(=O)[C@H](CO)NC(=O)[C@H](Cc1ccc(O)cc1)NC(=O)[C@H](CC(=O)O)NC(=O)[C@H](CO)NC(=O)[C@@H](NC(=O)[C@H](Cc1ccccc1)NC(=O)[C@@H](NC(=O)CNC(=O)[C@H](CCC(N)=O)NC(=O)[C@@H](CO)NC(=O)[C@@H](N)Cc1c[nH]cn1)[C@@H](C)O)[C@@H](C)O)C(=O)N[C@@H](CCCCN)C(=O)N[C@@H](CC(C)C)C(=O)N[C@@H](CC(=O)O)C(=O)NC(C)(C)C(=O)N[C@@H](CCCNC(=N)N)C(=O)N[C@@H](CCCNC(=N)N)C(=O)N[C@@H](C)C(=O)N[C@@H](CCC(N)=O)C(=O)N[C@@H](CC(=O)O)C(=O)N[C@@H](Cc1ccccc1)C(=O)N[C@H](C(=O)N[C@@H](CCC(N)=O)C(=O)N[C@@H](Cc1c[nH]c2ccccc12)C(=O)N[C@@H](CC(C)C)C(=O)N[C@@H](CCSC)C(=O)N[C@@H](CC(N)=O)C(=O)N[C@H](C(=O)NCC(=O)NCC(=O)N1CCC[C@H]1C(=O)N[C@@H](CO)C(=O)N[C@@H](CO)C(=O)NCC(=O)N[C@@H](C)C(=O)N1CCC[C@H]1C(=O)N1CCC[C@H]1C(=O)N1CCC[C@H]1C(=O)N[C@@H](CO)C(N)=O)[C@@H](C)O)C(C)C [Compound 15] | 2.5
